Measured values: US20040087653A1, “Methods for the treatment of respiratory diseases and conditions with a selective iNOS inhibitor and a PDE inhibitor and compositions therefor” (priority 2002, published 2004)
Structures can show the parent of a compound that is named as a salt. Where two headings read alike, the source gives them in different places.

Columns and labels:
[1] = tested on: nitrite production in human cartilage explants; assay: Human cartilage explant assay (IL-1 induced nitrite production); assay type: cell-based; settings: inhibition of nitrite production, IL-1 stimulated explants
Experimental: Bone pieces are rinsed twice with Dulbecco's Phosphate Buffered Saline (GibcoBRL) and once with Dulbecco's Modified Eagles Medium (GibcoBRL) and placed into a petri dish with phenol red free Minimum Essential Medium (MEM) (GibcoBRL). Cartilage was cut into small explants of approximately 15-45 mg in weight and one or two explants per well are placed into either 96 or 48 well culture plates with 200-500 μL of culture media per well. The culture media was either a custom modification of Minimum Essential Medium(Eagle) with Earle's salts (GibcoBRL) prepared without L-Arginine, without L-Glutamine and without phenol red or a custom modification of serumless Neuman and Tytell (GibcoBRL) medium prepared without L-arginine, without insulin, without ascorbic acid, without L-glutamine and without phenol red. Both are supplemented before use with 100 μM L-Arginine (Sigma), 2 mM L-glutamine, 1× HL-1 supplement (BioWhittaker), […] ascorbic acid (Sigma) and 150 pg/ml recombinant human IL-1[…] (RD Systems) to induce nitric oxide synthase. Compounds are then added in 10 μL aliquots and the explants incubated at 37° C. with 5% CO2 for 18-24 hours. The day old supernatant is then discarded and replaced with fresh culture media containing recombinant human IL-1β and compound and incubated for another 20-24 hours. […] All samples are done in quadruplicate. Unstimulated controls are cultured in media in the absence of recombinant human IL-1 □. IC50 values (Table II) are determined from plotting the percent inhibition of nitrite production at six different concentrations of inhibitor.

[2] = target: PDE V (Homo sapiens, UniProt O76074); settings: printed only as numerator of 8/0.0008; cited from earlier work
[3] = tested on: PDE IV; assay: PDE IV inhibition (Hatzelmann et al.)
Experimental: PDE inhibition is then determined by the presence or absence of substrate degradation products. […] The relative ability of an inhibitory compound to slow or prevent the degradation of tritiated cyclic nucleotides is one test that is indicative of how well the compound in question selects one or more of each isoform to inhibit.
In practice, the in vitro selectivity of a PDE IV inhibitor may vary depending upon the condition under which the test is performed and on the inhibitors being tested. However, for the purposes of this specification, the selectivity of a PDE IV inhibitor can be measured as a ratio of the in vitro IC50 value for inhibition of any other isoform of the phosphodiesterase enzyme (Z) other than PDE IV, divided by the IC50 value for inhibition of PDE IV (PDE Z IC50/PDE IV IC50), where Z identifies any PDE other than PDE IV.

[4] = tested on: T1, PDE IV; settings: Hatzelmann et al. 2001; cited from earlier work
T1 construct: other: Hatzelmann et al. 2001

[5] = tested on: PDE I; settings: Hatzelmann et al. 2001; cited from earlier work
[6] = tested on: LPS-induced increase in plasma nitrite/nitrate levels; assay: In vivo assay: plasma nitrite/nitrate in endotoxin-treated rats; settings: oral administration, plasma nitrite/nitrate 5 hours post-treatment
Experimental: Plasma nitrite/nitrate levels can be determined 5 hours post-treatment.

[7] = tested on: exhaled NO; settings: high doses; cited from earlier work
[8] = tested on: iNOS protein expression in human primary airway epithelial cells; assay: Western blotting of iNOS from cultured epithelial cells; assay type: cell-based; settings: cytokine-stimulated cells, various concentrations
Experimental: Western blotting of iNOS from cultured epithelial cells: Following incubation with the cytokine mixture alone or with various concentrations of L-NIL, epithelial cells were lysed in 50 mM Tris/HCl, pH 7.4, containing 0.25 mM ethylene diaminotetraacetic acid, 0.5 mM phenylmethylsulfonyl fluoride, 5 μg/ml antipain, 5 μg/ml leupeptin and 5 μg/ml benzaminidine. The protein concentration was determined using the BioRad protein assay kit according to the manufacturer's instructions. Cell proteins were solubilized in sodium dodecyl sulfate polyacrylamide gel electrophoresis sample buffer ([…] Tris/HCl, pH 6.8, containing 10% v/v glycerol, 1% w/v SDS, 1% w/v β-mercaptoethanol, and 0.01% w/v bromophenol blue). The proteins (15 μg per lane) were resolved by electrophoresis in 3-8% (w/v) Tris-acetate SDS-polyacrylamide gels and transferred to Hybond-Enhanced Chemi-luminescence (ECL) nitro-cellulose membranes. Equal protein loading was determined by staining the blot with 0.1% (w/v) Ponceau S in 5% (v/v) acetic acid. The nitro-cellulose was then blocked overnight at 4° C. in 0.5M Tris-HCl,pH 7.4, containing 3% (w/v) normal goat serum, 1% (w/v) bovine serum albumin and 0.05% (v/v) Tween-20. […]
Media was harvested and measured for nitrite content (FIG. 1). […]

[9] = tested on: human primary airway epithelial cells; assay: Nitrite in media of cytokine-stimulated human primary airway epithelial cells; assay type: cell-based; settings: cells cultured 24 h with 50 ng/ml IL-1β, TNF-α and IFN-γ; read-out: IC50, inhibition of the increase in nitrite in the media
Experimental: Human primary airway epithelial cell cultures: Human primary airway epithelial cells were cultured as described previously (see Donnelly,L. E. and Barnes,P. J. Am J Respir Cell Mol.Biol 24:295-303 (2000)), and the amount of nitrite, the stable oxidation product of NO, in the cell culture media was measured using a modification of the spectrofluorometric method of Misko et al., Anal. Biochem. 4:11-16 (1993).
The protein was evenly distributed throughout the cytoplasm in basal cells but clearly located beneath the cilia in the columnar, ciliated cells. Treatment of airway epithelial cells with 50 ng/ml of IL-1β, TNF-α and IFN-γ (cytomix) for 24 h caused an induction of iNOS protein and an increase in the accumulation of nitrite in cell culture media from 2.20±0.2 μM in the absence of cytomix, to 3.5±0.4 μM in the presence of cytomix.
Media was harvested and measured for nitrite content (FIG. 1). Cellular proteins were resolved on 3-8% tris-acetate polyacrylamide gels and immunoblotted for iNOS protein (FIG. 2).

[10] = target: i-NOS (Homo sapiens, UniProt P35228); assay: i-NOS inhibition, comparison with NIL amides
[11] = Rattus norvegicus, read-out: ED50

Sequence of i-NOS (P35228 whole entry): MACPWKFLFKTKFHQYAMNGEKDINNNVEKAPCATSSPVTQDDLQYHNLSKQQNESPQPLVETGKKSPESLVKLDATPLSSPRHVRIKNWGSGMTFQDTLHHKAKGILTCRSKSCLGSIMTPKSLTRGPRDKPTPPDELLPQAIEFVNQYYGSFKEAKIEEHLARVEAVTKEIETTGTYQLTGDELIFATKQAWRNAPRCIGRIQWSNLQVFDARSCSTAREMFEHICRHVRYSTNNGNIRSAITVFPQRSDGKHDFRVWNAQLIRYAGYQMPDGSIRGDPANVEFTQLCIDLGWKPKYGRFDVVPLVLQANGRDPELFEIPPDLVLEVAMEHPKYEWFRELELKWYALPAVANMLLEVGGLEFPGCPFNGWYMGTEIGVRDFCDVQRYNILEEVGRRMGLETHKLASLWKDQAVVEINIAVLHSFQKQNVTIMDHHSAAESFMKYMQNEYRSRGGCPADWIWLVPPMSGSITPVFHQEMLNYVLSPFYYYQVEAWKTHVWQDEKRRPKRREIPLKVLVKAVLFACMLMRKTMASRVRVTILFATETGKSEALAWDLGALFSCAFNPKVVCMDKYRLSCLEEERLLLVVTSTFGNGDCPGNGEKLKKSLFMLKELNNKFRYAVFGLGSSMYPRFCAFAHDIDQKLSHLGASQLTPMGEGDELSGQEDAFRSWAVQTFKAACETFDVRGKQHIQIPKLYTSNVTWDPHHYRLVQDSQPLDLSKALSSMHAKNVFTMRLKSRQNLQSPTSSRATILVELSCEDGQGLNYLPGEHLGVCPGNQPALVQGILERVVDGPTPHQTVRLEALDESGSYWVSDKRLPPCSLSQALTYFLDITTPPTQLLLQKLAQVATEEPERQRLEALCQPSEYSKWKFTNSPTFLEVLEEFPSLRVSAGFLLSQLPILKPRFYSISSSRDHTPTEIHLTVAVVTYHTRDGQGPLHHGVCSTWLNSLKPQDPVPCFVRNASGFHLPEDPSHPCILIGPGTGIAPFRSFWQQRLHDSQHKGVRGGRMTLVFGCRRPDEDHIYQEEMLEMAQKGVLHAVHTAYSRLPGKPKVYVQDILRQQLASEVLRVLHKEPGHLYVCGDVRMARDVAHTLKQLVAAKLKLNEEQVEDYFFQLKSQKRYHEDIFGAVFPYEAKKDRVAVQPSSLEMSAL

| Compound | IC50 ([1]; Homo sapiens) [µM] | ED50 [6, 11] [mg/kg] | also measured |
| --- | --- | --- | --- |
| CC(=N)NCC(F)=CCC[C@H](N)C(=O)O (mixture of isomers) [Example B, (2S,5E/Z)-2-amino-6-fluoro-7-[(1-iminoethyl)amino]-5-heptenoic acid, dihydrochloride] | 0.2 |  |  |
| O=C(Nc1c(Cl)cncc1Cl)c1ccc(OC(F)F)c(OCC2CC2)c1 [roflumilast] |  |  | IC50 [2]: 8 µM; selectivity for PDE IV as compared with PDE I ([3]; PDE I IC50/PDE IV IC50): at least 12,500; selectivity for PDE IV as compared with PDE V ([3]; PDE V IC50/PDE IV IC50): at least 10,000; IC50 [4]: 0.0008 µM; IC50 [5]: > 10 µM |
| N=C1CCCC[C@H](CCCC[C@H](N)C(=O)O)N1 [Example Z, (αS,2S)-α-aminohexahydro-7-imino-1H-azepine-2-hexanoic acid, trihydrate hydrochloride] | < 10 |  |  |
| CC(=N)NC/C(F)=C\CC[C@](C)(N)C(=O)O.Cl.Cl [Example HH, (2S,5E)-2-amino-2-methyl-6-fluoro-7-[(1-iminoethyl)amino]-5-heptenoic acid, dihydrochloride] | 0.4 | 0.4 |  |
| COC[C@](N)(CSCCNC(C)=N)C(=O)O [Example J, 2-[[[2-[(1-Iminoethyl)amino]ethyl]thio]methyl]-O-methyl-D-serine, dihydrochloride] |  |  | IC50 [1]: 8.2 µM |
| N=C(N)NN [amino-guanidine] |  |  | inhibition of exhaled NO [7]: approximately 70% |
| COC(=O)[C@@H](N)CCCNC(=N)N[N+](=O)[O-] [L-NAME] |  |  | inhibition of exhaled NO [7]: approximately 70% |
| N=C1CCCC[C@H](CCCC[C@@H](N)C(=O)O)N1 [Example V, (α,2S)-.α-aminohexahydro-7-imino-1H-azepine-2-hexanoic acid, trihydrate hydrochloride] | < 10 | < 3 |  |
| N=C1CCCC[C@H](CCCC[C@H](N)C(=O)O)N1 [Example X, (αS,2S)-α-aminohexahydro-7-imino-1H-azepine-2-hexanoic acid, trihydrate hydrochloride] |  |  | IC50 [1]: < 10 µM |
| CC(=N)NCCCC[C@H](N)C(=O)O [L-NIL] |  |  | effect on iNOS expression as detected by immunoblotting [8]: did not affect iNOS expression; IC50 [9]: ~5.7 µM |
| CC(=N)NC/C(F)=C\CC[C@H](N)C(=O)O [Example A, (2S,5E)-2-amino-6-fluoro-7-[(1-iminoethyl)amino]-5-heptenoic acid, dihydrochloride] | 0.1 | < 0.1 | ED50 ([6]; dihydrochloride): <0.1 mg/kg |
| CC(=NO)NC/C(F)=C\CC[C@H](N)C(=O)O [Example G, (2S,5E)-2-amino-6-fluoro-7-[(1-hydroximinoethyl)amino]-5-heptenoic acid] |  | < 0.1 | melting point: 198 to 200 °C |
| CC(=N)NCCCC[C@H](N)C(=O)Nc1nnn[nH]1 [Example 1, 2S-amino-6-[(1-iminoethyl)amino]-N-(1H-tetrazol-5-yl)hexanamide, hydrate, dihydrochloride] |  |  | selectivity compared with NIL amide or NIL dimethylamide [10]: more selective |
| CC(=N)NC/C(F)=C\CC[C@H](N)C(=O)Nc1nnn[nH]1 [Example H, (2S,5E)-2-amino-6-fluoro-7-[(1-iminoethyl)amino]-N-(1H-tetrazol-5-yl) 5-heptenamide, dihydrochloride] |  | < 0.3 |  |
| CC(=N)NC/C(F)=C/CC[C@H](N)C(=O)O [Example D, (2S,5Z)-2-amino-6-fluoro-7-[(1-iminoethyl)amino]-5-heptenoic acid, trihydrochloride, dihydrate] | 2.5 | > 10 |  |
| CC(=N)NC/C=C\CC[C@](C)(N)C(=O)O.Cl.Cl [Example LL, (2S,5Z)-2-amino-2-methyl-7-[(1-iminoethyl)amino]-5-heptenoic acid, dihydrochloride] | 0.8 | 0.3 |  |
| Cl.N=C1CCCC[C@H](CCCC[C@@H](N)C(=O)O)N1.O.O.O [Example Y, (αR,2S)-α-aminohexahydro-7-imino-1H-azepine-2-hexanoic acid, trihydrate hydrochloride] |  | < 3 |  |
| N=C1CCCC[C@@H](CCCC[C@H](N)C(=O)O)N1 [Example W, (αS,2R)-α-aminohexahydro-7-imino-1H-azepine-2-hexanoic acid, trihydrate hydrochloride] | > 30 |  |  |
